Laboratory results taken from patent US20240246960A1 (adMare Therapeutics Society, priority 2021, published 2024).

Key:
[1] = Hepatocyte stability assay, mouse hepatocytes; type: in vitro ADME; conditions: for hepatocyte CLint at 1 uM: male, CD-1, mouse, cryopreserved hepatocytes, pH 7.3, 0.7 million cells per mL, 1 uM compound
Protocol: (§1) Cryopreserved mouse hepatocytes were obtained from a pool of 10 or more male CD-1 mice. Cryopreserved human hepatocytes were obtained from a pool of 10 or more donors of mixed gender. Final hepatocyte density was 0.7 million viable cells per mL and test compound concentration was 1 uM with a maximum of 0.01% DMSO. Cryopreserved hepatocytes were thawed, washed, and resuspended in Krebs-Heinslet buffer (pH 7.3). The reaction was initiated by adding the test compound into cell suspension and incubated for 0, […], 1, 1.5, and 2 h, respectively, at 37° C./5% CO2. The reaction was stopped by adding acetonitrile into the incubation mixture. Samples were then mixed, transferred completely to another 96-well plate, and centrifuged. Supernatants were used for HPLC-MS/MS analysis. […] Peak areas corresponding to the test compound were recorded.

[2] = Hepatocyte stability assay, human hepatocytes; type: in vitro ADME; conditions: for hepatocyte CLint at 1 uM: both sexes, human, cryopreserved hepatocytes, pH 7.3, 0.7 million cells per mL, 1 uM compound
Protocol: as §1

[3] = target: T1, DNA-PK phosphorylation at Serine 2056 (Homo sapiens, UniProt P78527); assay: Cellular Assay for Inhibition of DNA-PK Phosphorylation at Serine 2056 (FaDu cells, neocarzinostatin, sandwich ELISA); type: cell-based; conditions: Table 1
T1 construct: host or cells: FaDu
Method in brief: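 Readout was pSer2056 and total DNA-PK, measured by sandwich ELISA on protein-normalized lysates. Prior to lysis, compound was applied to FaDu cells for 1 h (0.3% DMSO), followed by 2 h of 1 μg/mL neocarzinostatin. IC50 values were fitted from log concentration versus % inhibition normalized to DMSO and NCS controls.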

[4] = Microsomal stability assay, mouse liver microsomes; conditions: for microsomal CLint at 0.1 uM: male, CD-1, mouse, liver microsomes, pH 7.4, Microsomal Stability Mouse Clint, 0.1 mg/mL microsomes, 0.1 uM compound
Protocol: Mouse liver microsomes were obtained from a pool of 250 or more male CD-1 mice. […] Final microsomal concentration was 0.1 mg/mL and test compound concentration was 0.1 uM with a maximum of 0.01% DMSO. The test compound was pre-incubated with pooled liver microsomes in phosphate buffer (pH 7.4) for 5 min in a 37° C. shaking water bath. The reaction was initiated by adding NADPH-generating system and incubated for 0, 15, 30, 45, and 60 min. The reaction was stopped by transferring the incubation mixture to acetonitrile/methanol. Samples were then mixed and centrifuged. Supernatants were used for HPLC-MS/MS analysis. The HPLC system consisted of a binary LC pump with autosampler, a C-18 column, and a gradient. Peak areas corresponding to the test compound were recorded. The compound remaining was calculated by comparing the peak area at each time point to time zero. The half-life was calculated from the slope of the initial linear range of the logarithmic curve of compound remaining (%) vs. time, assuming first order kinetics. In addition, the intrinsic clearance (Clint) was calculated from the half-life.

Hepatocyte Stability (mouse) % rem. 120 min [1]	hepatocyte CLint at 1 uM [1] [µL/min/1e6 cells]	Hepatocyte Stability (human) % rem. 120 min [2]	hepatocyte CLint at 1 uM [2] [µL/min/1e6 cells]	IC50 [3] [nM]	Microsomal Stability (mouse) % rem. 60 min [4]	microsomal CLint at 0.1 uM [4] [µL/min/mg]	Compound
G (% remaining = 50-75%)	< 8.2	G (% remaining = 50-75%)	< 8.2	100 to 1000	–	–	FC(F)c1ccc2c(O[C@H]3CC[C@@H](Nc4ncccn4)CC3)nc(N3CCOCC3)cc2n1 [Compound 21, N-((1s,4s)-4-((2-(Difluoromethyl)-7-morpholino-1,6-naphthyridin-5-yl)oxy)cyclohexyl)pyrimidin-2-amine]
F (% remaining = 25-50%)	> 8.2	E (% remaining = 0-25%)	> 8.2	< 100	–	–	FC(F)c1ccnc2cc(N3CCOCC3)nc(O[C@H]3CC[C@@H](Nc4ncccn4)CC3)c12 [Compound 22, N-((1s,4s)-4-((4-(Difluoromethyl)-7-morpholino-1,6-naphthyridin-5-yl)oxy)cyclohexyl)pyrimidin-2-amine]
E (% remaining = 0-25%)	> 8.2	–	–	< 100	E (% remaining = 0-25%)	> 116	c1cnc2cc(N3CCOCC3)nc(O[C@H]3CC[C@@H](Nc4cncnc4)CC3)c2c1 [Compound 28, N-((1s,4s)-4-((7-morpholino-1,6-naphthyridin-5-yl)oxy)cyclohexyl)pyrimidin-5-amine]
H (% remaining = 75-100%)	< 8.2	F (% remaining = 25-50%)	> 8.2	100 to 1000	–	–	Cn1cnc(N[C@H]2CC[C@@H](Oc3nc(N4CCOCC4)cc4ncccc34)CC2)n1 [Compound 31, 1-methyl-N-((1s,4s)-4-((7-morpholino-1,6-naphthyridin-5-yl)oxy)cyclohexyl)-1H-1,2,4-triazol-3-amine]
F (% remaining = 25-50%)	> 8.2	E (% remaining = 0-25%)	> 8.2	< 100	–	–	COc1ccc(N[C@H]2CC[C@@H](Oc3nc(N4CCOCC4)cc4ncccc34)CC2)nn1 [Compound 38, 6-methoxy-N-((1s,4s)-4-((7-morpholino-1,6-naphthyridin-5-yl)oxy)cyclohexyl)pyridazin-3-amine]
F (% remaining = 25-50%)	> 8.2	G (% remaining = 50-75%)	< 8.2	< 100	–	–	Nc1cnc(N[C@H]2CC[C@@H](Oc3nc(N4CCOCC4)cc4ncccc34)CC2)nc1 [Compound 43, N2-((1s,4s)-4-((7-morpholino-1,6-naphthyridin-5-yl)oxy)cyclohexyl)pyrimidine-2,5-diamine]
F (% remaining = 25-50%)	> 8.2	–	–	< 100	F (% remaining = 25-50%)	> 116	O=C(N[C@H]1CC[C@@H](Oc2nc(N3CCOCC3)cc3ncccc23)CC1)c1cccnc1 [Compound 115, N-((1s,4s)-4-((7-morpholino-1,6-naphthyridin-5-yl)oxy)cyclohexyl)nicotinamide]
E (% remaining = 0-25%)	> 8.2	–	–	100 to 1000	F (% remaining = 25-50%)	> 116	O=C(N[C@H]1CC[C@@H](Oc2nc(N3CCOCC3)cc3ncccc23)CC1)c1ccncn1 [Compound 118, N-((1s,4s)-4-((7-morpholino-1,6-naphthyridin-5-yl)oxy)cyclohexyl)pyrimidine-4-carboxamide]
F (% remaining = 25-50%)	> 8.2	–	–	100 to 1000	E (% remaining = 0-25%)	> 116	O=C(N[C@H]1CC[C@@H](Oc2nc(N3CCOCC3)cc3ncccc23)CC1)c1nccs1 [Compound 135, N-((1s,4s)-4-((7-morpholino-1,6-naphthyridin-5-yl)oxy)cyclohexyl)thiazole-2-carboxamide]
